Experimental data from patent publication US20240270762A1, “PENICILLIN-BINDING PROTEIN INHIBITORS” (priority 2021, published 2024).
Values after ≈ are worked out from the molar mass of the structure shown. Where two headings read alike, the source gives them in different places.

How the values were obtained:
[1] = molecular target: T1, PBP3 from Pseudomonas aeruginosa (PAO1) (Pseudomonas aeruginosa, UniProt G3XD46); experiment: Bocillin-FL fluorescence polarization competition binding, P. aeruginosa PBP3; details: Binding affinity to P. aeruginosa PBP3; fluorescence polarization competition binding assay using Bocillin-FL; read-out: P. aeruginosa PBP3 Potency
T1 construct: made in house
Summary of the method: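 Purified PBP was preincubated with inhibitor (E. coli PBP3 1.5 μM, 30 min; P. aeruginosa PBP3 0.75 μM, A. baumannii PBP3 0.2 μM and PBP1a 1 μM, 15 min), then Bocillin-FL (0.1 μM; 0.05 μM for PBP1a) added and FP read up to 60 min. EC50 = 50% loss of bound probe.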

P. aeruginosa ATCC 27853 = experiment: microbe, parasite or virus in culture; assay type: cell-based; details: Pseudomonas aeruginosa, ATCC27853, read-out: Minimum inhibitory concentration, P. aeruginosa ATCC 27853
P. aeruginosa CDC-0095 = experiment: microbe, parasite or virus in culture; assay type: cell-based; details: Pseudomonas aeruginosa, CDC0095, read-out: Minimum inhibitory concentration, P. aeruginosa CDC-0095
A. baumannii CDC-0036 = experiment: microbe, parasite or virus in culture; assay type: cell-based; details: Acinetobacter baumannii, CDC0036, read-out: MIC, A. baumannii CDC-0036
A. baumannii CDC-0045 = experiment: microbe, parasite or virus in culture; assay type: cell-based; details: Acinetobacter baumannii, CDC0045, read-out: MIC, A. baumannii CDC-0045
[2] = system: B. thailandensis ATCC 700388; experiment: microbe, parasite or virus in culture; assay type: cell-based; details: Burkholderia thailandensis, ATCC700388, read-out: Minimum inhibitory concentration (MIC), B. thailandensis ATCC 700388
[3] = system: B. humptydooensis ATCC BAA-2767; experiment: microbe, parasite or virus in culture; assay type: cell-based; details: Burkholderia humptydooensis, ATCCBAA2767, read-out: Minimum inhibitory concentration (MIC), B. humptydooensis ATCC BAA-2767
P. aeruginosa CDC-0110 = experiment: microbe, parasite or virus in culture; assay type: cell-based; details: Pseudomonas aeruginosa, CDC0110, read-out: Minimum inhibitory concentration, P. aeruginosa CDC-0110
N. gonorrhoeae FA1090 = experiment: Liquid broth MIC in Fastidious broth; details: Neisseria gonorrhoeae
N. gonorrhoeae WHO G = experiment: Liquid broth MIC in Fastidious broth; details: Neisseria gonorrhoeae
N. gonorrhoeae WHO L = experiment: Liquid broth MIC in Fastidious broth; details: Neisseria gonorrhoeae
N. gonorrhoeae WHO Q = experiment: Liquid broth MIC in Fastidious broth; details: Neisseria gonorrhoeae
[4] = FA1090, read-out: Minimum Inhibitory Concentration (MIC), N. gonorrhoeae FA 1090
[5] = read-out: Minimum Inhibitory Concentration (MIC), N. gonorrhoeae WHO G
[6] = read-out: Minimum Inhibitory Concentration (MIC), N. gonorrhoeae WHO L
[7] = read-out: Minimum Inhibitory Concentration (MIC), N. gonorrhoeae WHO Q
[8] = FA1090, read-out: Minimum Inhibitory Concentration, FA 1090
[9] = read-out: Minimum Inhibitory Concentration, WHO G
[10] = read-out: Minimum Inhibitory Concentration, WHO L
[11] = read-out: Minimum Inhibitory Concentration, WHO Q

T1 sequence (G3XD46 whole entry): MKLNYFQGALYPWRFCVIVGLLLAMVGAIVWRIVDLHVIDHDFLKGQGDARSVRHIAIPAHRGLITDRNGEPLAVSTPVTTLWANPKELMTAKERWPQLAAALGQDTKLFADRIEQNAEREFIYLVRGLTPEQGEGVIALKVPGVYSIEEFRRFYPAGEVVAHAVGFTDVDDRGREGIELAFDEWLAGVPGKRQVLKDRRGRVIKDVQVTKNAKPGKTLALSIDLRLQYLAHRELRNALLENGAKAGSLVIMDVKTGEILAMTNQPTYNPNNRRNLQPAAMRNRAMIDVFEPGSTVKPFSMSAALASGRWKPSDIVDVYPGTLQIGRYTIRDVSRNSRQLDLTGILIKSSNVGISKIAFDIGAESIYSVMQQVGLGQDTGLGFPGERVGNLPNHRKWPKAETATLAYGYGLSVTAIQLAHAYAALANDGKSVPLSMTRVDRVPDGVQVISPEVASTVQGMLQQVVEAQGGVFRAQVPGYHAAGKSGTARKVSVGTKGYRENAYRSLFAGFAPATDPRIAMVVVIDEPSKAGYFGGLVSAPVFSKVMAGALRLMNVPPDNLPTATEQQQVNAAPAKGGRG

| Compound | IC50 [1] [µM] | MIC (P. aeruginosa ATCC 27853) [µg/mL] | MIC (P. aeruginosa CDC-0095) [µg/mL] | MIC (A. baumannii CDC-0036) [µg/mL] | MIC (A. baumannii CDC-0045) [µg/mL] | MIC [2] [µg/mL] | MIC [3] [µg/mL] | MIC (P. aeruginosa CDC-0110) [µg/mL] | MIC (N. gonorrhoeae FA1090; [4]) [µg/mL] | MIC (N. gonorrhoeae WHO G; [5]) [µg/mL] | MIC (N. gonorrhoeae WHO L; [6]) [µg/mL] | MIC (N. gonorrhoeae WHO Q; [7]) [µg/mL] | MIC (N. gonorrhoeae FA1090; [8]) [µg/mL] | MIC (N. gonorrhoeae WHO G; [9]) [µg/mL] | MIC (N. gonorrhoeae WHO L; [10]) [µg/mL] | MIC (N. gonorrhoeae WHO Q; [11]) [µg/mL] |
| --- | --- | --- | --- | --- | --- | --- | --- | --- | --- | --- | --- | --- | --- | --- | --- | --- |
| O=C(NCCN1CCN(C(=O)N[C@@H](C(=O)N[C@H]2Cc3ccc(F)c(C(=O)O)c3OB2O)c2cc(F)c(O)c(O)c2Cl)C(=O)C1=O)Nc1ccncc1 [Example 221, (R)-3-((R)-2-(2-chloro-5-fluoro-3,4-dihydroxyphenyl)-2-(2,3-dioxo-4-(2-(3-(pyridin-4-yl)ureido)ethyl)piperazine-1-carboxamido)acetamido)-7-fluoro-2-hydroxy-3,4-dihydro-2H-benzo[e][1,2]oxaborinine-8-carboxylic acid] | < 10 | < 1 | 8 to 16 (≈ 10.7 to 21.5 µM) | 2 to 4 (≈ 2.68 to 5.36 µM) | < 1 | 2 to 4 (≈ 2.68 to 5.36 µM) | < 1 | < 1 | 1 to 2 (≈ 1.34 to 2.68 µM) | 4 to 8 (≈ 5.36 to 10.7 µM) | > 64 | > 64 |  |  |  |  |
| O=C(NCCS(=O)(=O)N1CCN(C(=O)N[C@@H](C(=O)N[C@H]2Cc3ccc(F)c(C(=O)O)c3OB2O)c2cc(F)c(O)c(O)c2Cl)C1=O)Nc1cccnc1 [Example 267, (R)-3-((R)-2-(2-chloro-5-fluoro-3,4-dihydroxyphenyl)-2-(2-oxo-3-((2-(3-(pyridin-3-yl)ureido)ethyl)sulfonyl)imidazolidine-1-carboxamido)acetamido)-7-fluoro-2-hydroxy-3,4-dihydro-2H-benzo[e][1,2]oxaborinine-8-carboxylic acid] | < 10 | 2 to 4 (≈ 2.56 to 5.12 µM) | 2 to 4 (≈ 2.56 to 5.12 µM) | 2 to 4 (≈ 2.56 to 5.12 µM) | < 1 | 2 to 4 (≈ 2.56 to 5.12 µM) | 2 to 4 (≈ 2.56 to 5.12 µM) | 2 to 4 (≈ 2.56 to 5.12 µM) |  |  |  |  | 1 to 2 (≈ 1.28 to 2.56 µM) | 16 to 32 (≈ 20.5 to 40.9 µM) | > 64 | 16 to 32 (≈ 20.5 to 40.9 µM) |
| CN(CCN1CCN(C(=O)N[C@@H](C(=O)N[C@H]2Cc3ccc(F)c(C(=O)O)c3OB2O)c2cc(F)c(O)c(O)c2Cl)C(=O)C1=O)Cc1cccnc1 [Example 201, (R)-3-((R)-2-(2-chloro-5-fluoro-3,4-dihydroxyphenyl)-2-(4-(2-(methyl(pyridin-3-ylmethyl)amino)ethyl)-2,3-dioxopiperazine-1-carboxamido)acetamido)-7-fluoro-2-hydroxy-3,4-dihydro-2H-benzo[e][1,2]oxaborinine-8-carboxylic acid] | < 10 | < 1 | < 1 | 2 to 4 (≈ 2.74 to 5.47 µM) | < 1 | < 1 | < 1 | < 1 | 1 to 2 (≈ 1.37 to 2.74 µM) | 4 to 8 (≈ 5.47 to 10.9 µM) | > 64 | 16 to 32 (≈ 21.9 to 43.8 µM) |  |  |  |  |
| O=C(NCCCS(=O)(=O)N1CCN(C(=O)N[C@H](C(=O)N[C@H]2Cc3ccc(F)c(C(=O)O)c3OB2O)c2cc(F)c(O)c(O)c2Cl)C1=O)c1cccc(O)c1 [Example 270, (R)-3-((S)-2-(2-chloro-5-fluoro-3,4-dihydroxyphenyl)-2-(3-((3-(3-hydroxybenzamido)propyl)sulfonyl)-2-oxoimidazolidine-1-carboxamido)acetamido)-7-fluoro-2-hydroxy-3,4-dihydro-2H-benzo[e][1,2]oxaborinine-8-carboxylic acid] | < 10 | 32 to 64 (≈ 40.2 to 80.4 µM) | > 128 | 32 to 64 (≈ 40.2 to 80.4 µM) | 8 to 16 (≈ 10.1 to 20.1 µM) | > 128 | > 128 | > 128 |  |  |  |  | 16 to 32 (≈ 20.1 to 40.2 µM) | > 64 | > 64 | > 64 |
| O=C(NCCS(=O)(=O)N1CCN(C(=O)NC(C(=O)N[C@H]2Cc3ccc(F)c(C(=O)O)c3OB2O)c2cc(F)c(O)c(O)c2Cl)C1=O)Nc1cccc(O)c1 (stereo partly drawn) [Example 266, (3R)-3-(2-(2-chloro-5-fluoro-3,4-dihydroxyphenyl)-2-(3-((2-(3-(3-hydroxyphenyl)ureido)ethyl)sulfonyl)-2-oxoimidazolidine-1-carboxamido)acetamido)-7-fluoro-2-hydroxy-3,4-dihydro-2H-benzo[e][1,2]oxaborinine-8-carboxylic acid] | < 10 | 2 to 4 (≈ 2.51 to 5.02 µM) | 8 to 16 (≈ 10 to 20.1 µM) | 2 to 4 (≈ 2.51 to 5.02 µM) | < 1 | 2 to 4 (≈ 2.51 to 5.02 µM) | 8 to 16 (≈ 10 to 20.1 µM) | 2 to 4 (≈ 2.51 to 5.02 µM) |  |  |  |  | 1 to 2 (≈ 1.25 to 2.51 µM) | 16 to 32 (≈ 20.1 to 40.2 µM) | > 64 | 16 to 32 (≈ 20.1 to 40.2 µM) |
| O=C(NCCN1CCN(C(=O)NC(C(=O)N[C@H]2Cc3ccc(F)c(C(=O)O)c3OB2O)c2cc(F)c(O)c(O)c2Cl)C(=O)C1=O)Nc1ccc(O)cc1 (stereo partly drawn) [Example 219, (3R)-3-(2-(2-chloro-5-fluoro-3,4-dihydroxyphenyl)-2-(4-(2-(3-(4-hydroxyphenyl)ureido)ethyl)-2,3-dioxopiperazine-1-carboxamido)acetamido)-7-fluoro-2-hydroxy-3,4-dihydro-2H-benzo[e][1,2]oxaborinine-8-carboxylic acid] | < 10 | 2 to 4 (≈ 2.63 to 5.26 µM) | 8 to 16 (≈ 10.5 to 21 µM) | 8 to 16 (≈ 10.5 to 21 µM) | 8 to 16 (≈ 10.5 to 21 µM) | 8 to 16 (≈ 10.5 to 21 µM) | 8 to 16 (≈ 10.5 to 21 µM) | < 1 | 1 to 2 (≈ 1.31 to 2.63 µM) | 16 to 32 (≈ 21 to 42.1 µM) | > 64 | > 64 |  |  |  |  |
| O=C(NCCCS(=O)(=O)N1CCN(C(=O)NC(C(=O)N[C@H]2Cc3ccc(F)c(C(=O)O)c3OB2O)c2cc(F)c(O)c(O)c2Cl)C1=O)c1ccccc1 (stereo partly drawn) [Example 268, (3R)-3-(2-(3-((3-benzamidopropyl)sulfonyl)-2-oxoimidazolidine-1-carboxamido)-2-(2-chloro-5-fluoro-3,4-dihydroxyphenyl)acetamido)-7-fluoro-2-hydroxy-3,4-dihydro-2H-benzo[e][1,2]oxaborinine-8-carboxylic acid] | < 10 | 8 to 16 (≈ 10.3 to 20.5 µM) | 32 to 64 (≈ 41 to 82.1 µM) | 2 to 4 (≈ 2.56 to 5.13 µM) | 2 to 4 (≈ 2.56 to 5.13 µM) | > 128 | > 128 | 8 to 16 (≈ 10.3 to 20.5 µM) |  |  |  |  | 4 to 8 (≈ 5.13 to 10.3 µM) | 16 to 32 (≈ 20.5 to 41 µM) | > 64 | 16 to 32 (≈ 20.5 to 41 µM) |
| O=C(NCCCS(=O)(=O)N1CCN(C(=O)N[C@@H](C(=O)N[C@H]2Cc3ccc(F)c(C(=O)O)c3OB2O)c2cc(F)c(O)c(O)c2Cl)C1=O)c1cccc(O)c1 [Example 271, (R)-3-((R)-2-(2-chloro-5-fluoro-3,4-dihydroxyphenyl)-2-(3-((3-(3-hydroxybenzamido)propyl)sulfonyl)-2-oxoimidazolidine-1-carboxamido)acetamido)-7-fluoro-2-hydroxy-3,4-dihydro-2H-benzo[e][1,2]oxaborinine-8-carboxylic acid] | < 10 | 2 to 4 (≈ 2.51 to 5.03 µM) | > 128 | 2 to 4 (≈ 2.51 to 5.03 µM) | < 1 | 8 to 16 (≈ 10.1 to 20.1 µM) | 2 to 4 (≈ 2.51 to 5.03 µM) | 8 to 16 (≈ 10.1 to 20.1 µM) |  |  |  |  | 1 to 2 (≈ 1.26 to 2.51 µM) | 16 to 32 (≈ 20.1 to 40.2 µM) | > 64 | 16 to 32 (≈ 20.1 to 40.2 µM) |
